1 substance from PMC11395447, “Development and Optimization of a Bromothymol Blue-Based PLA2 Assay Involving POPC-Based Self-Assemblies” (International Journal of Molecular Sciences, 2024) can be followed below.

By Km is commonly meant the concentration of substrate that gives half-maximal velocity.

The target of the assay is T1, PLA2-IB (Phospholipase A2 IB) (Sus scrofa, UniProt P00592).
T1 construct: gene PLA2G1B
The assay is described as follows: bromothymol blue absorbance assay, Michaelis-Menten kinetics on POPC liposomes (Km). Format: biochemical.

T1 sequence (P00592 23-146): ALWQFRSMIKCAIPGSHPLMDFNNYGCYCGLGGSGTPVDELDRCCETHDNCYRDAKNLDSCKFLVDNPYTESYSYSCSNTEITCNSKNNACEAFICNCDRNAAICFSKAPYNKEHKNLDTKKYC

For the substance POPC, the Km was found to be 12.9 µM.
